Laboratory results: patent US11111248B2, “Crystal form of 2-(6-methyl-pyridin-2-yl)-3-yl-[6-amido-quinolin-4-yl]-5,6-dihydro-4H-pyrrolo[1,2-B]pyrazole, preparation method therefor and pharmaceutical composition thereof” (Hangzhou SoliPharma Co., Ltd., priority 2017, dated 2021)
In brackets after ≈: the same amount, converted by molar mass. Entries after “also recorded” stand apart in the source; their conditions may differ.

Columns and labels:
Assay type in all cases: physicochemical
[1] = isothermal sorption (dynamic vapor sorption); conditions: 0% RH to 80% RH; for hygroscopicity: isothermal sorption
Description: Dynamic vapor sorption data and isothermal sorption data were collected on TA Instruments Q5000 TGA. Method: A sample of 1 to 10 mg was placed in a platinum pan; the weight change of the sample during the change in relative humidity from 0% to 80% to 0% was measured.

[2] = thermal phase stability from DSC and TGA thermograms; conditions: for phase transformation on heating: DSC and TGA thermograms
Description: […] data were collected on TA Instruments Q200 DSC. Method: A sample of 1 to 10 mg was placed in an aluminum pan with a pin-holed lid, and the sample was heated from room temperature to 200° C. at a heating rate of 10° C./min under the protection of dry nitrogen purge at 40 mL/min.
Thermogravimetric analysis data were collected on TA Instruments Q500 TGA. Method: A sample of 5 to 15 mg was placed in a platinum pan, using High Resolution™, the sample was heated from room temperature to 350° C. at a heating rate of 10° C./min under the protection of dry nitrogen purge at 40 mL/min.

water solubility test = conditions: for Solubility: 25° C.±2° C., visual clarity, 5 mg sample, max 100 mL water
Description: Accurately weighed 5 mg samples in a 200 mL flask which was in a water bath with temperature 25° C.±2° C., added water in a geometric fashion the flask, stirred (about 200 r/min), and observed by naked eyes to see if it was clear. Water was added every 3 mins, maximum water amount 100 mL.

Cc1cccc(-c2nn3c(c2-c2ccnc4ccc(C(N)=O)cc24)CCC3)n1 [LY2157299 Form 1, 2-(6-methyl-pyridin-2-yl)-3-(6-amido-quinolin-4-yl)-5,6-dihydro-4h-pyrrolo[1,2-b]pyrazole]
hygroscopicity [1]: non-hygroscopic
phase transformation on heating [2]: no phase transformation before melting
water solubility (water solubility test): about 160 ug/mL
Solubility (water solubility test): 160 µg/mL (≈ 433 µM)

Cc1cccc(-c2nn3c(c2-c2ccnc4ccc(C(N)=O)cc24)CCC3)n1 [LY2157299 Form 2, 2-(6-methyl-pyridin-2-yl)-3-(6-amido-quinolin-4-yl)-5,6-dihydro-4h-pyrrolo[1,2-b]pyrazole]
weight change, isothermal sorption curve [1]: 0.25%
hygroscopicity [1]: slightly hygroscopic
water solubility (water solubility test): about 200 ug/mL
Solubility (water solubility test): 200 µg/mL (≈ 541 µM)

Cc1cccc(-c2nn3c(c2-c2ccnc4ccc(C(N)=O)cc24)CCC3)n1 [LY2157299 Form 3, 2-(6-methyl-pyridin-2-yl)-3-(6-amido-quinolin-4-yl)-5,6-dihydro-4h-pyrrolo[1,2-b]pyrazole]
hygroscopicity [1]: non-hygroscopic
phase transformation on heating [2]: no phase transformation before melting
water solubility (water solubility test): about 150 μg/mL
Solubility (water solubility test): 150 µg/mL (≈ 406 µM)

Cc1cccc(-c2nn3c(c2-c2ccnc4ccc(C(N)=O)cc24)CCC3)n1 [LY2157299 Form 4, 2-(6-methyl-pyridin-2-yl)-3-(6-amido-quinolin-4-yl)-5,6-dihydro-4h-pyrrolo[1,2-b]pyrazole]
weight change, isothermal sorption curve [1]: 0.95%
hygroscopicity [1]: slightly hygroscopic
water solubility (water solubility test): about 100 ug/mL
Solubility (water solubility test): 100 µg/mL (≈ 271 µM)

Cc1cccc(-c2nn3c(c2-c2ccnc4ccc(C(N)=O)cc24)CCC3)n1 [LY2157299 Form 7, 2-(6-methyl-pyridin-2-yl)-3-(6-amido-quinolin-4-yl)-5,6-dihydro-4h-pyrrolo[1,2-b]pyrazole]
water solubility (water solubility test): about 100 μg/mL
Solubility (water solubility test): 100 µg/mL (≈ 271 µM)

Cc1cccc(-c2nn3c(c2-c2ccnc4ccc(C(N)=O)cc24)CCC3)n1 [LY2157299 Monohydrate, 2-(6-methyl-pyridin-2-yl)-3-(6-amido-quinolin-4-yl)-5,6-dihydro-4h-pyrrolo[1,2-b]pyrazole]
hygroscopicity [1]: slightly hygroscopic
dehydration and start of phase transition temperature ([2]; DSC): 133 °C
phase transformation on heating [2]: dehydrates under temperature and its phase transformes; also recorded: dehydrates under temperature and has phase transformation
phase transition temperature lower than that of Form 2 ([2]; DSC thermograms, difference to Form 2): 60 °C
Solubility (water solubility test): <50 µg/mL
